This passage reports IC50 results from patent publication US9187472B2 (AbbVie Inc., priority 2012, dated 2015).

Each structure is given as a SMILES string. pIC50: −log10 of the molar value.

Test [1] concerns the target NAMPT (human, recombinant, C-terminally His-tagged) (Homo sapiens, UniProt P43490). As to the kind of experiment: Time-Resolved Fluorescence Resonance Energy Transfer (TR-FRET) Binding Assay of NAMPT. The following applies: without substrates; 6.8 nM NAMPT, 200 nM probe, 3 hours equilibration. Summed up: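 A TR-FRET probe-displacement assay used 6.8 nM His-tagged recombinant human NAMPT, 200 nM Oregon Green 488-labelled nicotinamide-competitive probe and 1 nM Tb-anti-His antibody. Buffer was HEPES pH 7.5 with NaCl, MgCl2, DTT and glycerol, plus 2% DMSO, equilibrated 3 h at room temperature. Em520/Em495 ratios, normalized to controls, gave IC50 by four-parameter logistic fit.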
On the technique in general: In TR-FRET formats the signal depends on donor and acceptor labels being close together.

The target of another test is NAMPT (Homo sapiens, UniProt P43490). As to the kind of experiment: TR-FRET Binding Assay of NAMPT with PRPP. Conditions: with 200 μM PRPP and 2.5 mM ATP; 2 nM NAMPT, 2 nM probe, 16 hours equilibration. In a few lines:
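Human NAMPT (2 nM) with 2 nM probe and 1 nM Tb-anti-His antibody, plus 200 μM PRPP and 2.5 mM ATP, 2% DMSO. TR-FRET read after 16 h equilibration, permitting possible enzymatic modification of test compounds; data processing as for the substrate-free format.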

The next test has as its system PC3 cells. As to the kind of experiment: NAMPT Cell Proliferation Assay. It is filed as cell-based. The following applies: Homo sapiens, PC-3, 120 h, 5 days incubation, cell viability by Cell Titer Glo. Summed up:
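PC3 cells were plated at 500 cells/well in RPMI with 10% heat-inactivated FBS, left to attach overnight, then given compounds in 10-fold dilutions from 10 μM to 1×10^−5 μM. After 5 days at 37° C and 5% CO2, viability was read by luminescence and IC50s came from sigmoidal fits of percent inhibition.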
A general note: Cellular ATP, detected with luciferase, serves as a proxy for viable cell number.

Sequence of NAMPT (P43490 whole entry): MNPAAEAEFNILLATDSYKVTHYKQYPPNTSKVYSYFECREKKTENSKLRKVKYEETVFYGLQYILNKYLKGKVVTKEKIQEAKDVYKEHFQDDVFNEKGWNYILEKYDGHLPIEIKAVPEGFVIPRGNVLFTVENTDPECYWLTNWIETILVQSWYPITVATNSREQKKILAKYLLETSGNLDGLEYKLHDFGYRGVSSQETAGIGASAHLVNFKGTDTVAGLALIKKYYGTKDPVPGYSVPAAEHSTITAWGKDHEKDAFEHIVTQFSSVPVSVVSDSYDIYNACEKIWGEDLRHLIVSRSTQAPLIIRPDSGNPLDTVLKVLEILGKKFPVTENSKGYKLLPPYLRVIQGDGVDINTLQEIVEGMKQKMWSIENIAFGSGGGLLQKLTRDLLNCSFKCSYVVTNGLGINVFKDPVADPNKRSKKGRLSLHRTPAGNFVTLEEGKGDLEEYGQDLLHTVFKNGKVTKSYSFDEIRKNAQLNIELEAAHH
Sequence of NAMPT (human, recombinant, C-terminally His-tagged) (P43490 whole entry): as above

What is called pIC50 is the IC50 on a negative log10 scale, so that one unit is a factor of ten. Turning to `CC(=O)N1CCC(Oc2ccc(C(=O)NCc3ccc4nccn4c3)cc2)CC1` [Example 160, 4-[(1-acetylpiperidin-4-yl)oxy]-N-(imidazo[1,2-a]pyridin-6-ylmethyl)benzamide], the figures for the negative-log IC50 (pIC50) (in test [1]; at NAMPT; in the test with PC3 cells) were 5.49, 8.90 and 6.04, respectively.
On the same counts, the results for `O=C(NCc1ccn2ccnc2c1)c1ccc(C2CCN(C(=O)c3ccccc3)C2)s1` (stereo not drawn) [Example 542, 5-(1-benzoylpyrrolidin-3-yl)-N-(imidazo[1,2-a]pyridin-7-ylmethyl)thiophene-2-carboxamide] are 7.45, 9.47 and 8.54.
In the case of `O=C(NCc1ccn2ccnc2c1)Nc1ccc(O[C@@H]2CCN(C(=O)C3CCOC3)C2)cc1` (stereo partly drawn) [Example 337, 1-(imidazo[1,2-a]pyridin-7-ylmethyl)-3-(4-{[(3R)-1-(tetrahydrofuran-3-ylcarbonyl)pyrrolidin-3-yl]oxy}phenyl)urea], the values for the pIC50 (in test [1]; on NAMPT; in the test on PC3 cells) were 6.30, 9.69 and 6.27, respectively.
On the same counts, the results for `O=C(NCc1ccn2ccnc2c1)c1ccc(OC2CCN(C(=O)C3COCCO3)CC2)cc1` (stereo not drawn) [Example 421, 4-{[1-(1,4-dioxan-2-ylcarbonyl)piperidin-4-yl]oxy}-N-(imidazo[1,2-a]pyridin-7-ylmethyl)benzamide] are 5.61, 9.57 and 6.50.
On the same counts, the results for `COc1cccc(C(=O)N2CCC(c3ccc(C(=O)NCc4ccn5ccnc5c4)cc3)CC2)c1` [Example 526, N-(imidazo[1,2-a]pyridin-7-ylmethyl)-4-[1-(3-methoxybenzoyl)piperidin-4-yl]benzamide] are 6.90, 9.56 and 7.22.
Regarding `Cc1ccccc1C(=O)N1CC(c2ccc(C(=O)NCc3ccn4ccnc4c3)cc2)C1` [Example 644, N-(imidazo[1,2-a]pyridin-7-ylmethyl)-4-[1-(2-methylbenzoyl)azetidin-3-yl]benzamide], the pIC50 in test [1] was 7.09; on NAMPT, 9.16; with PC3 cells, 8.39.
On the same counts, the results for `O=C(NCc1ccn2ccnc2c1)c1ccc(C2CCN(C(=O)c3ccc(Cl)cc3)C2)cc1` (stereo not drawn) [Example 596, 4-[1-(4-chlorobenzoyl)pyrrolidin-3-yl]-N-(imidazo[1,2-a]pyridin-7-ylmethyl)benzamide] are 6.16, 9.04 and 6.59.
With `O=C(NCc1ccn2ccnc2c1)c1ccc(N2C[C@@H](O)CC2=O)s1` [Example 268, 5-[(4S)-4-hydroxy-2-oxopyrrolidin-1-yl]-N-(imidazo[1,2-a]pyridin-7-ylmethyl)thiophene-2-carboxamide], the values for the pIC50 (in test [1]; on NAMPT; in the test on PC3 cells) were 6.12, 9.77 and 5.26, respectively.
Take `O=C(NCc1ccn2ccnc2c1)c1ccc(O[C@H]2CCN(C(=O)C3CCOCC3)C2)cc1` [Example 342, N-(imidazo[1,2-a]pyridin-7-ylmethyl)-4-{[(3S)-1-(tetrahydro-2H-pyran-4-ylcarbonyl)pyrrolidin-3-yl]oxy}benzamide]: the pIC50 in test [1] was less than 5.00; on NAMPT, 9.34; with PC3 cells it was 5.17.
With `O=C(NCc1ccn2ccnc2c1)c1ccc(C2CCN(C(=O)C3CCOCC3)CC2)cc1` [Example 232, N-(imidazo[1,2-a]pyridin-7-ylmethyl)-4-[1-(tetrahydro-2H-pyran-4-ylcarbonyl)piperidin-4-yl]benzamide], the pIC50 is 6.40 in test [1], 9.56 at NAMPT and 8.03 with PC3 cells.
On the same counts, the results for `CCC(C)CC(=O)N1CCC(c2ccc(C(=O)NCc3ccn4ccnc4c3)cc2)C1` (stereo not drawn) [Example 582, N-(imidazo[1,2-a]pyridin-7-ylmethyl)-4-[1-(3-methylpentanoyl)pyrrolidin-3-yl]benzamide] are 6.15, 9.04 and 7.48.
Take `O=C(NCCCCC1CCN(C(=O)c2ccccc2)CC1)Nc1ccn2ccnc2c1` [Example 270, 1-[4-(1-benzoylpiperidin-4-yl)butyl]-3-imidazo[1,2-a]pyridin-7-ylurea]: the negative-log IC50 (pIC50) was 7.22 in test [1], 9.00 at NAMPT and 6.01 in the test on PC3 cells.
As to `O=C(CC1CCOC1)Nc1ccc(NC(=O)Nc2ccc3nccn3c2)cc1` (stereo not drawn) [Example 26, N-{4-[(imidazo[1,2-a]pyridin-6-ylcarbamoyl)amino]phenyl}-2-(tetrahydrofuran-3-yl)acetamide], the pIC50 in test [1] is 6.68; at NAMPT it was 8.96; in the test on PC3 cells, 6.58.
Consider `CC(C)(O)Cn1cc(-c2ccc(C(=O)NCc3ccc4nccn4c3)s2)cn1` [Example 176, 5-[1-(2-hydroxy-2-methylpropyl)-1H-pyrazol-4-yl]-N-(imidazo[1,2-a]pyridin-6-ylmethyl)thiophene-2-carboxamide], for which the negative-log IC50 (pIC50) is 7.22 in test [1], 9.38 on NAMPT and 8.74 in the test with PC3 cells.
On the same counts, the results for `O=C(NCc1ccn2ccnc2c1)c1ccc(C2CCN(S(=O)(=O)C3CC3)CC2)cc1` [Example 684, 4-[1-(cyclopropylsulfonyl)piperidin-4-yl]-N-(imidazo[1,2-a]pyridin-7-ylmethyl)benzamide] are 6.32, 8.87 and 6.49.
On the same counts, the results for `O=C(Nc1ccc(C(=O)NCCN2CCCC2=O)cc1)Nc1ccc2nccn2c1` [Example 15, 4-[(imidazo[1,2-a]pyridin-6-ylcarbamoyl)amino]-N-[2-(2-oxopyrrolidin-1-yl)ethyl]benzamide] are 5.75, 9.08 and 5.40.
On the same counts, the results for `CC(C)OCCNC(=O)c1ccc(NC(=O)Nc2ccc3nccn3c2)cc1` [Example 12, -[(imidazo[1,2-a]pyridin-6-ylcarbamoyl)amino]-N-[2-(propan-2-yloxy)ethyl]benzamide] are 6.31, 9.53 and 6.67.
On to `O=C(NCc1ccn2ccnc2c1)Nc1ccc(O[C@@H]2CCN(C(=O)c3ccc(Cl)cc3)C2)cc1` [Example 696, 1-(4-{[(3R)-1-(4-chlorobenzoyl)pyrrolidin-3-yl]oxy}phenyl)-3-(imidazo[1,2-a]pyridin-7-ylmethyl)urea], for which the pIC50 in test [1] was 6.57; at NAMPT, 9.14; in the test with PC3 cells, 6.18.
Regarding `CCCCC(=O)NC1(c2ccc(C(=O)NCc3ccn4ccnc4c3)s2)COC1` [Example 327, N-(imidazo[1,2-a]pyridin-7-ylmethyl)-5-[3-(pentanoylamino)oxetan-3-yl]thiophene-2-carboxamide], the negative-log IC50 (pIC50) was 5.88 in test [1], 9.25 at NAMPT and 6.20 in the test on PC3 cells.
On the same counts, the results for `Cn1cc(CC(=O)N(C[C@H]2CCCO2)c2ncc(C(=O)NCc3ccn4ccnc4c3)s2)cn1` [Example 202, N-(imidazo[1,2-a]pyridin-7-ylmethyl)-2-{[(1-methyl-1H-pyrazol-4-yl)acetyl][(2R)-tetrahydrofuran-2-ylmethyl]amino}-1,3-thiazole-5-carboxamide] are 6.67, 9.45 and 8.31.
Regarding `O=C(NCc1ccn2ccnc2c1)c1ccc(C2CCN(C(=O)c3ccccc3Cl)C2)s1` (stereo not drawn) [Example 757, 5-[1-(2-chlorobenzoyl)pyrrolidin-3-yl]-N-(imidazo[1,2-a]pyridin-7-ylmethyl)thiophene-2-carboxamide], the pIC50 in test [1] is 7.81; on NAMPT, 9.15; in the test with PC3 cells it was 9.36.
In the case of `CC(C)CC(=O)N1CCC(c2ccc(C(=O)NCc3ccn4ccnc4c3)s2)C1` (stereo not drawn) [Example 467, N-(imidazo[1,2-a]pyridin-7-ylmethyl)-5-[1-(3-methylbutanoyl)pyrrolidin-3-yl]thiophene-2-carboxamide], the pIC50 in test [1] was 7.04; on NAMPT it was 9.56; in the test with PC3 cells, 8.40.
On the same counts, the results for `Cc1cc(C(=O)N2CCC(c3ccc(C(=O)NCc4ccn5ccnc5c4)s3)C2)c(C)o1` (stereo not drawn) [Example 778, 5-{1-[(2,5-dimethylfuran-3-yl)carbonyl]pyrrolidin-3-yl}-N-(imidazo[1,2-a]pyridin-7-ylmethyl)thiophene-2-carboxamide] are 7.56, 9.38 and 9.05.
On the same counts, the results for `CC(C)CC(=O)NC1(c2ccc(C(=O)NCc3ccn4ccnc4c3)s2)CCC1` [Example 469, N-(imidazo[1,2-a]pyridin-7-ylmethyl)-5-{1-[(3-methylbutanoyl)amino]cyclobutyl}thiophene-2-carboxamide] are less than 5.00, 9.36 and 5.47.
Turning to `O=C(NCc1ccn2ccnc2c1)Nc1ccc(O[C@@H]2CCN(C(=O)[C@@H]3CCCO3)C2)cc1` [Example 336, 1-(imidazo[1,2-a]pyridin-7-ylmethyl)-3-[4-({(3R)-1-[(2S)-tetrahydrofuran-2-ylcarbonyl]pyrrolidin-3-yl}oxy)phenyl]urea], the negative-log IC50 (pIC50) in test [1] is 6.48; on NAMPT it was 9.58; in the test on PC3 cells, 6.86.
